Key:
[1] = tested on: yeast which can spoil carbonated beverage; details: types of yeast which can spoil carbonated beverage; cited from earlier work
[2] = Degradation kinetics of pimaricin in beverage without β-cyclodextrin, UV-visible peak ratio (Background Example 2); format: physicochemical; details: beverage pH 3.4; no β-cyclodextrin
Text: (§1) Such reactions are a consequence of the formation of reactive oxygen species (ROS) wherein oxygen merely serves as an intermediate in the transfer of electrons in REDOX type reactions which ultimately result in the degradation of more complex molecules such as pimaricin. In this regard, O2 behaves similar to a catalyst. Similar to many reactions involving catalyst, the amount of oxygen required to drive in such reactions is very small. In this regard, it is of interest to evaluate the stability of pimaricin in solution under differing conditions of oxygen tension. Clearly, it is also of interest to establish whether the formation of a complex between pimaricin and β-cyclodextrin serves to stabilize pimaricin from degradation by reaction with oxygen. […] Briefly, pimaricin yields a very distinctive UV-visible spectrum with 3 separate absorption maxima. As pimaricin degrades, the peak heights diminish. Degradation can be tracked through the diminishing peak height of any single peak maxima or through changes in relative peak height.
Freshly prepared samples of pimaricin in water yield a spectrogram of 3 peak 1 (320 nm) peak 2 (304 nm) and peak 3 (291 nm). […] These differences are a reflection of the conjugated diene structure of pimaricin. As the integrity of the conjugate structure gives way to degradation, the relative peak heights are subject to change. […]

[3] = Loss of pimaricin over time in water as a function of O2 content and complex with β-cyclodextrin (Background Example 3); format: physicochemical
Text: as §1
Given a method to monitor the changes in concentration of pimaricin, it is then possible to establish whether pimaricin degrades differently as a function of variables such as initial oxygen tension of solution. Background Example 3, FIG. 3 captures results for the degradation of pimaricin over a time period of several months as a function of initial oxygen tension and the presence or absence of a complex between pimaricin and β (beta) cyclodextrin.
The initial concentration of pimaricin in complex ≧400 ppm and so pimaricin is fully bound to β-cyclodextrin. Measurements in distilled water at neutral pH and 25° C. Thus, regardless of the presence or absence of a complex with cyclodextrin, pimaricin is subject to degradation over time when in solution.

[4] = tested on: Zygosaccharomyces strains or Brettanomyces strains; test: 16 week spoilage trial in carbonated lemon-lime beverage (Sierra Mist, 3.6 volumes CO2, PET), Comparative Example 1; format: cell-based; details: for samples spoiled: period of the test (14 weeks, 98 days), 25° C.
Experimental: […] This beverage is carbonated to 3.6 volumes CO2 in PET containers. Negative control containers received no inoculum. Positive control samples were inoculated with either Zygosaccharomyces strains (907, 28, Marion, HP, Mt. Dew, & SM Soiler) or Brettanomyces strains Dan, H2O2, Cherry 7-UP, 1601-1, and SY-05). […] All samples were then held at 25° C. for the duration of the study. […] 33% of the samples containing 15 ppm spoiled and 100% of samples containing 5 ppm pimaricin spoiled.

## (IR,3S,5R,7R,8E,12R,14E,16E,18E,20E,22R,24S,25R,26S)-{[3S,4S,5S,6R)-4-amino-3,5-dihydroxy-6-methyloxan-2-yl]oxy}-1,3,26 trihydroxy-12-methyl-10-oxo-6,11,28-trioxatricyclo[22.3.1.0^5,7]octacosa-8,14,16,18,20 pentaene-25-carboxylic acid [pimaricin]
[1]
  reported MIC values: ≥ 10 ppm
[2]
  degradation in aqueous suspension: degrades relatively quickly
[3]; not complexed, oxygen lowered to 3500 ppb
  effect of lowering oxygen concentration on rate of degradation: does not measurably impact the rate of degradation
[3]; not complexed, water containing oxygen in excess of 8500 ppb
  degradation over time: degrades quite quickly
[3]; pimaricin alone in water containing only, neutral pH, 25° C.
  rate of degradation versus water containing 8300 ppm O2: about the same rate
[3]; water containing 8300 ppb O2, distilled water, neutral pH, 25° C.
  rate of degradation versus pimaricin complex β-cyclodextrin: slightly faster rate
[4]; 5 ppm Pimaricin, week 0, day 0
  Onset of Spoilage: 0%
[4]; 5 ppm Pimaricin, week 1, day 7
  Onset of Spoilage: 0%
[4]; 5 ppm Pimaricin, week 2, day 14
  Onset of Spoilage: 0%
[4]; 5 ppm Pimaricin, week 3, day 21
  Onset of Spoilage: 0%
[4]; 5 ppm Pimaricin, week 4, day 28
  Onset of Spoilage: 0%
[4]; 5 ppm Pimaricin, week 5, day 35
  Onset of Spoilage: 0%
[4]; 5 ppm Pimaricin, week 6, day 42
  Onset of Spoilage: 0%
[4]; 5 ppm Pimaricin, week 7, day 49
  Onset of Spoilage: 0%
[4]; 5 ppm Pimaricin, week 8, day 56
  Onset of Spoilage: 0%
[4]; 5 ppm Pimaricin, week 9, day 63
  Onset of Spoilage: 75%
[4]; 5 ppm Pimaricin, week 10, day 70
  Onset of Spoilage: 75%
[4]; 5 ppm Pimaricin, week 11, day 77
  Onset of Spoilage: 100%
[4]; 5 ppm Pimaricin, week 12, day 84
  Onset of Spoilage: 100%
[4]; 5 ppm Pimaricin, week 13, day 91
  Onset of Spoilage: 100%
[4]; 5 ppm Pimaricin, week 14, day 98
  Onset of Spoilage: 100%
[4]; 5 ppm Pimaricin, week 15, day 105
  Onset of Spoilage: 100%
[4]; 5 ppm Pimaricin, week 16, day 112
  Onset of Spoilage: 100%
[4]; 5 ppm Pimaricin, week 17, day 119
  Onset of Spoilage: 100%
[4]; 5 ppm Pimaricin, week 18, day 126
  Onset of Spoilage: 100%
[4]; 5 ppm Pimaricin, week 19, day 133
  Onset of Spoilage: 100%
[4]; 5 ppm Pimaricin, week 20, day 140
  Onset of Spoilage: 100%
[4]; 5 ppm Pimaricin, week 21, day 147
  Onset of Spoilage: 100%
[4]; 5 ppm Pimaricin, week 22, day 154
  Onset of Spoilage: 100%
[4]; 5 ppm Pimaricin, week 23, day 161
  Onset of Spoilage: 100%
[4]; 5 ppm Pimaricin, week 24, day 168
  Onset of Spoilage: 100%
[4]; 5 ppm pimaricin
  samples spoiled: 100%
[4]; 15 ppm Pimaricin, week 0, day 0
  Onset of Spoilage: 0%
[4]; 15 ppm Pimaricin, week 1, day 7
  Onset of Spoilage: 0%
[4]; 15 ppm Pimaricin, week 2, day 14
  Onset of Spoilage: 0%
[4]; 15 ppm Pimaricin, week 3, day 21
  Onset of Spoilage: 0%
[4]; 15 ppm Pimaricin, week 4, day 28
  Onset of Spoilage: 0%
[4]; 15 ppm Pimaricin, week 5, day 35
  Onset of Spoilage: 0%
[4]; 15 ppm Pimaricin, week 6, day 42
  Onset of Spoilage: 0%
[4]; 15 ppm Pimaricin, week 7, day 49
  Onset of Spoilage: 0%
[4]; 15 ppm Pimaricin, week 8, day 56
  Onset of Spoilage: 0%
[4]; 15 ppm Pimaricin, week 9, day 63
  Onset of Spoilage: 0%
[4]; 15 ppm Pimaricin, week 10, day 70
  Onset of Spoilage: 0%
[4]; 15 ppm Pimaricin, week 11, day 77
  Onset of Spoilage: 33%
[4]; 15 ppm Pimaricin, week 12, day 84
  Onset of Spoilage: 33%
[4]; 15 ppm Pimaricin, week 13, day 91
  Onset of Spoilage: 33%
[4]; 15 ppm Pimaricin, week 14, day 98
  Onset of Spoilage: 33%
[4]; 15 ppm Pimaricin, week 15, day 105
  Onset of Spoilage: 33%
[4]; 15 ppm Pimaricin, week 16, day 112
  Onset of Spoilage: 33%
[4]; 15 ppm Pimaricin, week 17, day 119
  Onset of Spoilage: 33%
[4]; 15 ppm Pimaricin, week 18, day 126
  Onset of Spoilage: 33%
[4]; 15 ppm Pimaricin, week 19, day 133
  Onset of Spoilage: 33%
[4]; 15 ppm Pimaricin, week 20, day 140
  Onset of Spoilage: 33%
[4]; 15 ppm Pimaricin, week 21, day 147
  Onset of Spoilage: 33%
[4]; 15 ppm Pimaricin, week 22, day 154
  Onset of Spoilage: 33%
[4]; 15 ppm Pimaricin, week 23, day 161
  Onset of Spoilage: 33%
[4]; 15 ppm Pimaricin, week 24, day 168
  Onset of Spoilage: 33%
[4]; 15 ppm pimaricin
  samples spoiled: 33%
[4]; 25 ppm Pimaricin, week 0, day 0
  Onset of Spoilage: 0%
[4]; 25 ppm Pimaricin, week 1, day 7
  Onset of Spoilage: 0%
[4]; 25 ppm Pimaricin, week 2, day 14
  Onset of Spoilage: 0%
[4]; 25 ppm Pimaricin, week 3, day 21
  Onset of Spoilage: 0%
[4]; 25 ppm Pimaricin, week 4, day 28
  Onset of Spoilage: 0%
[4]; 25 ppm Pimaricin, week 5, day 35
  Onset of Spoilage: 0%
[4]; 25 ppm Pimaricin, week 6, day 42
  Onset of Spoilage: 0%
[4]; 25 ppm Pimaricin, week 7, day 49
  Onset of Spoilage: 0%
[4]; 25 ppm Pimaricin, week 8, day 56
  Onset of Spoilage: 0%
[4]; 25 ppm Pimaricin, week 9, day 63
  Onset of Spoilage: 0%
[4]; 25 ppm Pimaricin, week 10, day 70
  Onset of Spoilage: 0%
[4]; 25 ppm Pimaricin, week 11, day 77
  Onset of Spoilage: 0%
[4]; 25 ppm Pimaricin, week 12, day 84
  Onset of Spoilage: 0%
[4]; 25 ppm Pimaricin, week 13, day 91
  Onset of Spoilage: 0%
[4]; 25 ppm Pimaricin, week 14, day 98
  Onset of Spoilage: 0%
[4]; 25 ppm Pimaricin, week 15, day 105
  Onset of Spoilage: 0%
[4]; 25 ppm Pimaricin, week 16, day 112
  Onset of Spoilage: 0%
[4]; 25 ppm Pimaricin, week 17, day 119
  Onset of Spoilage: 0%
[4]; 25 ppm Pimaricin, week 18, day 126
  Onset of Spoilage: 0%
[4]; 25 ppm Pimaricin, week 19, day 133
  Onset of Spoilage: 0%
[4]; 25 ppm Pimaricin, week 20, day 140
  Onset of Spoilage: 0%
[4]; 25 ppm Pimaricin, week 21, day 147
  Onset of Spoilage: 0%
[4]; 25 ppm Pimaricin, week 22, day 154
  Onset of Spoilage: 0%
[4]; 25 ppm Pimaricin, week 23, day 161
  Onset of Spoilage: 0%
[4]; 25 ppm Pimaricin, week 24, day 168
  Onset of Spoilage: 0%
[4]; equivalent of 30 mg pimaricin per ml
  samples spoiled: None
[4]; samples which contained 25 ppm pimaricin
  freedom from spoilage for duration of shelf-life: remain free of spoilage
